Data taken from ChEMBL document CHEMBL1201862, “PubChem BioAssay data set” (2004).
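Results reflect a 48-hour exposure of cells in 96-well plates to compound at five concentrations. GI50 marks 50% less growth.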 The source made the active and inactive calls. Cut-off read from the data, not from the text of the source: active = GI50 up to about 1.1 µM and inactive = higher.

Assays:
Test in all cases: NCI-60 cell line screen, 48 h
[1] = test system: RPMI-8226
[2] = test system: T47D
[3] = test system: NCI-H226
[4] = test system: U-251
[5] = test system: SK-OV-3
[6] = test system: LOX IMVI
[7] = test system: A498
[8] = test system: UACC-62
[9] = test system: SF-539
[10] = test system: EKVX
[11] = test system: UACC-257
[12] = test system: OVCAR-5
[13] = test system: CAKI-1
[14] = test system: NCI-H522
[15] = test system: A549
[16] = test system: Hs-578T
[17] = test system: SK-MEL-28
[18] = test system: SK-MEL-5
[19] = test system: K562
[20] = test system: HCT-116

Which results are given for OC1COC(n2c3ccc(Br)cc3c3ccc4c5ccccc5[nH]c4c32)C(O)C1O (stereo not given)?
GI50 [1]: 3.52 µM (inactive); GI50 [2]: 5.21 µM (inactive); GI50 [3]: 6.76 µM (inactive); GI50 [4]: 5.01 µM (inactive); GI50 [5]: 0.832 µM (active); GI50 [6]: 2.31 µM (inactive); GI50 [7]: 4.3 µM (inactive); GI50 [8]: 0.643 µM (active); GI50 [9]: 5.24 µM (inactive); GI50 [10]: 4.59 µM (inactive); GI50 [11]: 5.21 µM (inactive); GI50 [12]: 2.92 µM (inactive); GI50 [13]: 3.13 µM (inactive); GI50 [14]: 2.82 µM (inactive); GI50 [15]: 2.61 µM (inactive); GI50 [16]: 3.18 µM (inactive); GI50 [17]: 1.13 µM (inactive); GI50 [18]: 2.26 µM (inactive); GI50 [19]: 2.29 µM (inactive); GI50 [20]: 3.55 µM (inactive)

CCCCOC(=O)C(=O)C(CCC(=O)c1ccc(C)cc1)C(=O)C=C(C)C (stereo not given) was tested. Which GI50 [1] did it give?
Its GI50 is > 100 µM (inactive).

What about the GI50 [2] of the same compound?
The GI50 was > 100 µM (inactive).

And the GI50 [3]?
Its GI50 is > 100 µM (inactive).

And the GI50 [4]?
Its GI50 is > 100 µM (inactive).

What about the GI50 [5] of the same compound?
The GI50 was > 100 µM (inactive).

And the GI50 [6]?
The GI50 was > 100 µM (inactive).

And the GI50 [7]?
The GI50 was > 100 µM (inactive).

What about the GI50 [8] of the same compound?
The GI50 was > 100 µM (inactive).

And the GI50 [9]?
Its GI50 is > 100 µM (inactive).

What about the GI50 [10] of the same compound?
Its GI50 is > 100 µM (inactive).

And the GI50 [11]?
Its GI50 is > 100 µM (inactive).

What about the GI50 [12] of the same compound?
The GI50 was > 100 µM (inactive).

What about the GI50 [13] of the same compound?
Its GI50 is > 100 µM (inactive).

And the GI50 [14]?
Its GI50 is > 100 µM (inactive).

And the GI50 [15]?
The GI50 was > 100 µM (inactive).

And the GI50 [16]?
The GI50 was > 100 µM (inactive).

What about the GI50 [17] of the same compound?
Its GI50 is > 100 µM (inactive).

What about the GI50 [18] of the same compound?
Its GI50 is > 100 µM (inactive).

What about the GI50 [19] of the same compound?
The GI50 was > 100 µM (inactive).

And the GI50 [20]?
Its GI50 is > 100 µM (inactive).

For NCS(=O)(=O)O, which GI50 [1] is on record?
The GI50 was > 100 µM (inactive).

And the GI50 [2]?
Its GI50 is > 100 µM (inactive).

And the GI50 [3]?
Its GI50 is > 100 µM (inactive).

And the GI50 [4]?
The GI50 was > 100 µM (inactive).

And the GI50 [5]?
The GI50 was > 100 µM (inactive).

What about the GI50 [6] of the same compound?
The GI50 was > 100 µM (inactive).

And the GI50 [7]?
Its GI50 is > 100 µM (inactive).

And the GI50 [8]?
Its GI50 is > 100 µM (inactive).

What about the GI50 [9] of the same compound?
The GI50 was 0.0361 µM (active).

What about the GI50 [10] of the same compound?
Its GI50 is > 100 µM (inactive).

And the GI50 [11]?
Its GI50 is > 100 µM (inactive).

What about the GI50 [12] of the same compound?
Its GI50 is > 100 µM (inactive).

And the GI50 [13]?
Its GI50 is > 100 µM (inactive).

What about the GI50 [14] of the same compound?
Its GI50 is > 100 µM (inactive).

And the GI50 [15]?
The GI50 was > 100 µM (inactive).

And the GI50 [16]?
The GI50 was > 100 µM (inactive).

And the GI50 [17]?
Its GI50 is > 100 µM (inactive).

And the GI50 [18]?
Its GI50 is > 100 µM (inactive).

And the GI50 [19]?
The GI50 was > 100 µM (inactive).

And the GI50 [20]?
Its GI50 is > 100 µM (inactive).

For COc1cc(-c2cc(=O)c3c(OC)c(OC)c(OC)c(OC)c3o2)cc(OC)c1OC [HEPATAMETHOXYFLAVONE], which GI50 [1] is on record?
The GI50 was 26.1 µM (inactive).

What about the GI50 [2] of the same compound?
Its GI50 is 12.7 µM (inactive).

What about the GI50 [3] of the same compound?
Its GI50 is 44.8 µM (inactive).

What about the GI50 [4] of the same compound?
Its GI50 is 40.1 µM (inactive).

And the GI50 [5]?
The GI50 was 3.87 µM (inactive).

And the GI50 [6]?
Its GI50 is 25.9 µM (inactive).

And the GI50 [7]?
Its GI50 is 21.2 µM (inactive).

What about the GI50 [8] of the same compound?
Its GI50 is 21 µM (inactive).

And the GI50 [9]?
Its GI50 is > 100 µM (inactive).

And the GI50 [10]?
The GI50 was 48.4 µM (inactive).

And the GI50 [11]?
Its GI50 is 40 µM (inactive).

And the GI50 [12]?
Its GI50 is > 100 µM (inactive).

What about the GI50 [13] of the same compound?
The GI50 was 21.6 µM (inactive).

What about the GI50 [14] of the same compound?
The GI50 was 19.1 µM (inactive).

And the GI50 [15]?
The GI50 was 35.5 µM (inactive).

What about the GI50 [16] of the same compound?
Its GI50 is 29 µM (inactive).

And the GI50 [17]?
The GI50 was 53.2 µM (inactive).

And the GI50 [18]?
The GI50 was 12.4 µM (inactive).

And the GI50 [19]?
The GI50 was 63.4 µM (inactive).

What about the GI50 [20] of the same compound?
Its GI50 is 44.8 µM (inactive).
